Consider three molecules from paper PMC10589286, “Insights into the missing apiosylation step in flavonoid apiosides biosynthesis of Leguminosae plants” (Nature Communications, 2023).

One data set addresses T1, SsApiGT (Spatholobus suberectus, UniProt A0AA51YHU4).
T1 construct: full length, synthesized gene, pET-28a(+), E. coli BL21(DE3), nickel-purified
T1 sequence (A0AA51YHU4 1-448): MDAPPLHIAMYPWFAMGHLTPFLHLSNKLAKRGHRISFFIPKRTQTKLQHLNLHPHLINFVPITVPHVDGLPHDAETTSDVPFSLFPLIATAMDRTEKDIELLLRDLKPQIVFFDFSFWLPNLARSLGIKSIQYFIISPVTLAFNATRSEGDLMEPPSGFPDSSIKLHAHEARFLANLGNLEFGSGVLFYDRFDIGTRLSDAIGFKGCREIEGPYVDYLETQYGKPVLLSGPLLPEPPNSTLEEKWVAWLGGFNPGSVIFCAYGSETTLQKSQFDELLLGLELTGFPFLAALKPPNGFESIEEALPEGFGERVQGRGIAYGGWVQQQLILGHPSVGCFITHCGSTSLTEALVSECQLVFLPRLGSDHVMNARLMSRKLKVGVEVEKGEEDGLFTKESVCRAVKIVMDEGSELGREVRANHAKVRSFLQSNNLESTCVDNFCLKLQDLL
As to the kind of experiment: enzyme catalysis, LC/MS. The class given is biochemical. Conditions: sugar donor supplied by UAXS system; acceptor only in figure.

Another data set has as its target T2, GiApiGT (Glycyrrhiza inflata, UniProt A0AA51YKD5).
T2 construct: full length, pET-28a(+), E. coli BL21(DE3), nickel-purified
T2 sequence (A0AA51YKD5 1-454): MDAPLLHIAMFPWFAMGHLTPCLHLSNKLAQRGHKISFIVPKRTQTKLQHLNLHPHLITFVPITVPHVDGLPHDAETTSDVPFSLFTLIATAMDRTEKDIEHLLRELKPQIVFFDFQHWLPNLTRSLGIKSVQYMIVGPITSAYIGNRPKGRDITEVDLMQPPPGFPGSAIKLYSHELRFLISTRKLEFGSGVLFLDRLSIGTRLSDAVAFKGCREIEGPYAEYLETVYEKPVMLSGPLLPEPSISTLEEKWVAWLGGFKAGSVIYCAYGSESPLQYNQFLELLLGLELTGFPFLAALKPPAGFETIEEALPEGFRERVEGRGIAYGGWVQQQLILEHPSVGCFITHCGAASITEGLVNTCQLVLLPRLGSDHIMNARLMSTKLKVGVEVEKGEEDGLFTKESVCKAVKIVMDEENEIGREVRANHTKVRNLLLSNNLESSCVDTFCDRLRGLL
The experiment in a line: enzyme catalysis, LC/MS. The class given is biochemical. Conditions: sugar donor supplied by UAXS system; acceptor only in figure.

In another data set the target is T3, GgApiGT (Glycyrrhiza glabra, UniProt A0AA51YKR8).
T3 construct: full length, pET-28a(+), E. coli BL21(DE3), nickel-purified
T3 sequence (A0AA51YKR8 1-454): T2 sequence (A0AA51YKD5 1-454)
The experiment in a line: enzyme catalysis, LC/MS. The class given is biochemical. Conditions: sugar donor supplied by UAXS system; acceptor only in figure.

The target in another data set is T4, PtApiGT (Pueraria montana, UniProt A0AA51YHU3).
T4 construct: full length, pET-28a(+), E. coli BL21(DE3), nickel-purified
T4 sequence (A0AA51YHU3 1-457): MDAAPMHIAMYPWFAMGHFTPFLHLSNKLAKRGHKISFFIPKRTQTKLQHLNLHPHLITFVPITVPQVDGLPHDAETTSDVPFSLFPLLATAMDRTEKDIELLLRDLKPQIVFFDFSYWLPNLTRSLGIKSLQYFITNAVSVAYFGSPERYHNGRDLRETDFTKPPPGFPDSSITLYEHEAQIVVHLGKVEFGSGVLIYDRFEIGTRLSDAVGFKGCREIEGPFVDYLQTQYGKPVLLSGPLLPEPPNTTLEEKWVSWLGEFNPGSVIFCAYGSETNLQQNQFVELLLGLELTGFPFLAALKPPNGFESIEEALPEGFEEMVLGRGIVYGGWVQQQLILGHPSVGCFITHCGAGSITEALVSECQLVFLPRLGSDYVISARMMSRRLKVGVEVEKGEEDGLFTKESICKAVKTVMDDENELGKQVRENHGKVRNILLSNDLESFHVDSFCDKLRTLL
As to the kind of experiment: enzyme catalysis, LC/MS. The class given is biochemical. Conditions: sugar donor supplied by UAXS system; acceptor only in figure.

Another data set deals with T5, GuApiGT (Glycyrrhiza uralensis, UniProt A0AA51Z2W4, DEL371-371/H373Q).
T5 construct: full length, 454 aa (ORF 1365 bp), pET-28a(+) His-tagged, E. coli BL21(DE3), nickel-purified
The experiment in a line: HPLC/MS conversion. The class given is biochemical. Conditions: 0.5 mM UDP-Xyl, acceptor isoliquiritin (2) 0.1 mM, pH 8.0, 37 °C, 3 h; printed S371/H373Q (S371 deleted).

Substrate in data set [1]: O=C(/C=C/c1ccc(O[C@@H]2O[C@H](CO)[C@@H](O)[C@H](O)[C@H]2O)cc1)c1ccc(O)cc1O
The experiment in a line: HPLC, Michaelis-Menten fit. The class given is biochemical, Glycyrrhiza uralensis. Conditions: 480 µmol/L saturated UDP-apiose, pH 8.0 phosphate, 37 °C, 15 min.

T5 sequence (A0AA51Z2W4 entry or part of it DEL371-371/H373Q): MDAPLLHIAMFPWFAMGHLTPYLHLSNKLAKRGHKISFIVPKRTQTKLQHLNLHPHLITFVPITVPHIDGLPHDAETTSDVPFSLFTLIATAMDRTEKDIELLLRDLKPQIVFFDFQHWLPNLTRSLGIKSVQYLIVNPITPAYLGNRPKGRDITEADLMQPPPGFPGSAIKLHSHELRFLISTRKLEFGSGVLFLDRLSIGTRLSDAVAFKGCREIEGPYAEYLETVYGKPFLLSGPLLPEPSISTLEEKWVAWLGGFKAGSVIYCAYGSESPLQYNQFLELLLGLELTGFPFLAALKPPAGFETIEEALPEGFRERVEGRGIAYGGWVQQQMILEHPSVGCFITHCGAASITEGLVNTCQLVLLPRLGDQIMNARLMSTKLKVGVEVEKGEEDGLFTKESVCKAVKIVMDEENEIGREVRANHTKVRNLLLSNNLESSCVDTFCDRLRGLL

On to `O=c1ccn([C@@H]2O[C@H](COP(=O)(O)OP(=O)(O)O[C@H]3OC[C@](O)(CO)[C@H]3O)[C@@H](O)[C@H]2O)c(=O)[nH]1` [UDP-Api], for which the “enzyme catalysis, LC/MS” value at SsApiGT, on GiApiGT, at GgApiGT and at PtApiGT was “identified them as apiosyltransferases by enzyme catalysis reactions” throughout.

As for `O=c1ccn([C@@H]2O[C@H](COP(=O)(O)OP(=O)(O)O[C@H]3OC[C@@H](O)[C@H](O)[C@H]3O)[C@@H](O)[C@H]2O)c(=O)[nH]1` [UDP-Xyl], the HPLC/MS conversion entry at GuApiGT is recorded as “the S371/H373Q mutant could accept UDP-Xyl as sugar donor”.

B1: GuApiGT (Glycyrrhiza uralensis) (protein)
chain: MDAPLLHIAMFPWFAMGHLTPYLHLSNKLAKRGHKISFIVPKRTQTKLQHLNLHPHLITFVPITVPHIDGLPHDAETTSDVPFSLFTLIATAMDRTEKDIELLLRDLKPQIVFFDFQHWLPNLTRSLGIKSVQYLIVNPITPAYLGNRPKGRDITEADLMQPPPGFPGSAIKLHSHELRFLISTRKLEFGSGVLFLDRLSIGTRLSDAVAFKGCREIEGPYAEYLETVYGKPFLLSGPLLPEPSISTLEEKWVAWLGGFKAGSVIYCAYGSESPLQYNQFLELLLGLELTGFPFLAALKPPAGFETIEEALPEGFRERVEGRGIAYGGWVQQQMILEHPSVGCFITHCGAASITEGLVNTCQLVLLPRLGSDHIMNARLMSTKLKVGVEVEKGEEDGLFTKESVCKAVKIVMDEENEIGREVRANHTKVRNLLLSNNLESSCVDTFCDRLRGLL
notes: full length, 454 aa (ORF 1365 bp), pET-28a(+) His-tagged, E. coli BL21(DE3), nickel-purified
Usually Km stands for the concentration of substrate that gives half-maximal velocity. For orientation: kcat means the number of substrate molecules converted per active site and unit of time at saturation. Take B1: in data set [1], the Km came out at 2.59 ± 0.23 µM and the kcat turned out to be 0.11 s⁻¹.
